Test results published in ChEMBL document CHEMBL1201862, “PubChem BioAssay data set” (2004).
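Cells were grown in 96-well plates and exposed to each compound for 48 hours at five concentrations; endpoints were interpolated linearly between bracketing concentrations, or set to the highest concentration if not reached. GI50: concentration for 50% inhibition of growth.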 Active and inactive are the calls of the source. Cut-off read from the data, not from the text of the source: active = GI50 up to about 1.1 µM and inactive = higher.

Columns and labels:
Assay in all cases: NCI-60 cell line screen, 48 h
A498 = test system: A498
ACHN = test system: ACHN
BT-549 = test system: BT-549
CCRF-CEM = test system: CCRF-CEM
DU-145 = test system: DU-145
EKVX = test system: EKVX
HCC 2998 = test system: HCC 2998
HCT-116 = test system: HCT-116
HCT-15 = test system: HCT-15
HL-60 = test system: HL-60
HOP-62 = test system: HOP-62
HT-29 = test system: HT-29
Hs-578T = test system: Hs-578T
K562 = test system: K562
KM12 = test system: KM12
LOX IMVI = test system: LOX IMVI
M14 = test system: M14
MCF7 = test system: MCF7
MDA-MB-231 = test system: MDA-MB-231
MDA-MB-435 = test system: MDA-MB-435
MDA-N = test system: MDA-N
MOLT-4 = test system: MOLT-4
Malme-3M = test system: Malme-3M
NCI-H226 = test system: NCI-H226
NCI-H23 = test system: NCI-H23
NCI-H460 = test system: NCI-H460
NCI-H522 = test system: NCI-H522
OVCAR-3 = test system: OVCAR-3
OVCAR-5 = test system: OVCAR-5
RPMI-8226 = test system: RPMI-8226
RXF 393 = test system: RXF 393
SF-539 = test system: SF-539
SK-MEL-28 = test system: SK-MEL-28
SK-MEL-2 = test system: SK-MEL-2
SK-OV-3 = test system: SK-OV-3
SN12C = test system: SN12C
SNB-19 = test system: SNB-19
SNB-75 = test system: SNB-75
SR = test system: SR
T47D = test system: T47D
TK-10 = test system: TK-10
U-251 = test system: U-251
UACC-257 = test system: UACC-257
UACC-62 = test system: UACC-62
UO-31 = test system: UO-31
786-0 = test system: 786-0
A549 = test system: A549
CAKI-1 = test system: CAKI-1
COLO 205 = test system: COLO 205
HOP-92 = test system: HOP-92
IGROV-1 = test system: IGROV-1
NCI/ADR-RES = test system: NCI/ADR-RES
OVCAR-4 = test system: OVCAR-4
OVCAR-8 = test system: OVCAR-8
SF-268 = test system: SF-268
SF-295 = test system: SF-295
SK-MEL-5 = test system: SK-MEL-5
SW-620 = test system: SW-620
PC-3 = test system: PC-3

CCCOP(=O)(OCCC)OC(C(F)(F)F)C(F)(F)F
GI50 (A498): > 100 µM (inactive) | GI50 (ACHN): > 100 µM (inactive) | GI50 (BT-549): > 100 µM (inactive) | GI50 (CCRF-CEM): > 100 µM (inactive) | GI50 (DU-145): > 100 µM (inactive) | GI50 (EKVX): > 100 µM (inactive) | GI50 (HCC 2998): > 100 µM (inactive) | GI50 (HCT-116): > 100 µM (inactive) | GI50 (HCT-15): > 100 µM | GI50 (HL-60): > 100 µM (inactive) | GI50 (HOP-62): > 100 µM (inactive) | GI50 (HT-29): > 100 µM (inactive) | GI50 (Hs-578T): > 100 µM (inactive) | GI50 (K562): > 100 µM (inactive) | GI50 (KM12): > 100 µM (inactive) | GI50 (LOX IMVI): > 100 µM (inactive) | GI50 (M14): > 100 µM (inactive) | GI50 (MCF7): > 100 µM (inactive) | GI50 (MDA-MB-231): > 100 µM (inactive) | GI50 (MDA-MB-435): > 100 µM (inactive) | GI50 (MDA-N): > 100 µM (inactive) | GI50 (MOLT-4): > 100 µM (inactive) | GI50 (Malme-3M): > 100 µM (inactive) | GI50 (NCI-H226): > 100 µM (inactive) | GI50 (NCI-H23): > 100 µM (inactive) | GI50 (NCI-H460): > 100 µM (inactive) | GI50 (NCI-H522): > 100 µM (inactive) | GI50 (OVCAR-3): > 100 µM (inactive) | GI50 (OVCAR-5): > 100 µM (inactive) | GI50 (RPMI-8226): > 100 µM (inactive) | GI50 (RXF 393): 44.9 µM (inactive) | GI50 (SF-539): > 100 µM (inactive) | GI50 (SK-MEL-28): > 100 µM (inactive) | GI50 (SK-MEL-2): > 100 µM (inactive) | GI50 (SK-OV-3): > 100 µM (inactive) | GI50 (SN12C): > 100 µM (inactive) | GI50 (SNB-19): > 100 µM (inactive) | GI50 (SNB-75): > 100 µM (inactive) | GI50 (SR): > 100 µM (inactive) | GI50 (T47D): > 100 µM (inactive) | GI50 (TK-10): > 100 µM (inactive) | GI50 (U-251): > 100 µM (inactive) | GI50 (UACC-257): > 100 µM (inactive) | GI50 (UACC-62): > 100 µM (inactive) | GI50 (UO-31): > 100 µM (inactive)

Cc1ccc(C(=O)c2[nH]c(Nc3cc(C)ccn3)c(C(=S)Nc3ccccc3)c2N)cc1
GI50 (786-0): > 100 µM (inactive) | GI50 (A498): > 100 µM (inactive) | GI50 (A549): > 100 µM (inactive) | GI50 (ACHN): > 100 µM (inactive) | GI50 (BT-549): > 100 µM (inactive) | GI50 (CAKI-1): > 100 µM (inactive) | GI50 (CCRF-CEM): > 100 µM (inactive) | GI50 (COLO 205): > 100 µM (inactive) | GI50 (DU-145): > 100 µM (inactive) | GI50 (EKVX): > 100 µM (inactive) | GI50 (HCC 2998): > 100 µM (inactive) | GI50 (HCT-116): > 100 µM (inactive) | GI50 (HCT-15): > 100 µM | GI50 (HL-60): > 100 µM (inactive) | GI50 (HOP-62): > 100 µM (inactive) | GI50 (HOP-92): > 100 µM (inactive) | GI50 (HT-29): > 100 µM (inactive) | GI50 (Hs-578T): > 100 µM (inactive) | GI50 (IGROV-1): > 100 µM (inactive) | GI50 (K562): > 100 µM (inactive) | GI50 (KM12): > 100 µM (inactive) | GI50 (LOX IMVI): > 100 µM (inactive) | GI50 (M14): > 100 µM (inactive) | GI50 (MCF7): 87.5 µM (inactive) | GI50 (MDA-MB-231): > 100 µM (inactive) | GI50 (MDA-MB-435): > 100 µM (inactive) | GI50 (MDA-N): > 100 µM (inactive) | GI50 (MOLT-4): > 100 µM (inactive) | GI50 (Malme-3M): > 100 µM (inactive) | GI50 (NCI-H226): > 100 µM (inactive) | GI50 (NCI-H23): > 100 µM (inactive) | GI50 (NCI-H460): > 100 µM (inactive) | GI50 (NCI-H522): > 100 µM (inactive) | GI50 (NCI/ADR-RES): > 100 µM (inactive) | GI50 (OVCAR-3): > 100 µM (inactive) | GI50 (OVCAR-4): > 100 µM (inactive) | GI50 (OVCAR-5): > 100 µM (inactive) | GI50 (OVCAR-8): > 100 µM (inactive) | GI50 (RXF 393): > 100 µM (inactive) | GI50 (SF-268): > 100 µM (inactive) | GI50 (SF-295): > 100 µM (inactive) | GI50 (SF-539): > 100 µM (inactive) | GI50 (SK-MEL-28): > 100 µM (inactive) | GI50 (SK-MEL-2): > 100 µM (inactive) | GI50 (SK-MEL-5): > 100 µM (inactive) | GI50 (SK-OV-3): > 100 µM (inactive) | GI50 (SN12C): > 100 µM (inactive) | GI50 (SNB-19): > 100 µM (inactive) | GI50 (SNB-75): > 100 µM (inactive) | GI50 (SR): > 100 µM (inactive) | GI50 (SW-620): > 100 µM (inactive) | GI50 (T47D): > 100 µM (inactive) | GI50 (TK-10): > 100 µM (inactive) | GI50 (U-251): > 100 µM (inactive) | GI50 (UACC-257): > 100 µM (inactive) | GI50 (UACC-62): > 100 µM (inactive) | GI50 (UO-31): > 100 µM (inactive)

O=C(O)CCc1nc2cc3ccccc3cc2[nH]c1=O
GI50 (786-0): > 100 µM (inactive) | GI50 (A498): > 100 µM (inactive) | GI50 (A549): > 100 µM (inactive) | GI50 (ACHN): > 100 µM (inactive) | GI50 (BT-549): > 100 µM (inactive) | GI50 (CAKI-1): > 100 µM (inactive) | GI50 (CCRF-CEM): > 100 µM (inactive) | GI50 (COLO 205): > 100 µM (inactive) | GI50 (DU-145): > 100 µM (inactive) | GI50 (EKVX): > 100 µM (inactive) | GI50 (HCC 2998): > 100 µM (inactive) | GI50 (HCT-116): > 100 µM (inactive) | GI50 (HCT-15): > 100 µM | GI50 (HOP-62): > 100 µM (inactive) | GI50 (HOP-92): > 100 µM (inactive) | GI50 (HT-29): > 100 µM (inactive) | GI50 (IGROV-1): > 100 µM (inactive) | GI50 (K562): > 100 µM (inactive) | GI50 (KM12): > 100 µM (inactive) | GI50 (LOX IMVI): > 100 µM (inactive) | GI50 (M14): > 100 µM (inactive) | GI50 (MCF7): 65.6 µM (inactive) | GI50 (MDA-MB-231): > 100 µM (inactive) | GI50 (MDA-MB-435): > 100 µM (inactive) | GI50 (MDA-N): > 100 µM (inactive) | GI50 (MOLT-4): > 100 µM (inactive) | GI50 (NCI-H226): > 100 µM (inactive) | GI50 (NCI-H23): > 100 µM (inactive) | GI50 (NCI-H460): > 100 µM (inactive) | GI50 (NCI-H522): > 100 µM (inactive) | GI50 (NCI/ADR-RES): > 100 µM (inactive) | GI50 (OVCAR-3): > 100 µM (inactive) | GI50 (OVCAR-4): > 100 µM (inactive) | GI50 (OVCAR-5): > 100 µM (inactive) | GI50 (OVCAR-8): > 100 µM (inactive) | GI50 (PC-3): > 100 µM (inactive) | GI50 (RXF 393): > 100 µM (inactive) | GI50 (SF-268): > 100 µM (inactive) | GI50 (SF-295): > 100 µM (inactive) | GI50 (SF-539): > 100 µM (inactive) | GI50 (SK-MEL-28): > 100 µM (inactive) | GI50 (SK-MEL-2): > 100 µM (inactive) | GI50 (SK-MEL-5): > 100 µM (inactive) | GI50 (SK-OV-3): > 100 µM (inactive) | GI50 (SN12C): > 100 µM (inactive) | GI50 (SNB-19): > 100 µM (inactive) | GI50 (SNB-75): > 100 µM (inactive) | GI50 (SR): > 100 µM (inactive) | GI50 (SW-620): > 100 µM (inactive) | GI50 (T47D): > 100 µM (inactive) | GI50 (TK-10): > 100 µM (inactive) | GI50 (U-251): > 100 µM (inactive) | GI50 (UACC-257): > 100 µM (inactive) | GI50 (UACC-62): > 100 µM (inactive) | GI50 (UO-31): > 100 µM (inactive)
